Where only a bound is given, the exact number is not on record here.

`Cc1ncc(Cn2nnc(CNC(=O)c3ccc(Cl)cc3)c2I)c(N)n1` [Compound 103] displayed a melting point of 231 to 233 °C.
In turn, `Cc1ncc(Cn2nnc(CNC(=O)c3ccccc3Cl)c2I)c(N)n1` [Compound 100] had a melting point of 186 to 188 °C.
The compound `Cc1ncc(Cn2nnc(COC(=O)c3ccc(Cl)cc3)c2I)c(N)n1` [Compound 91] returned a melting point of 192 to 193 °C.
Under `Cc1ccc(C(=O)NCc2nnn(Cc3cnc(C)nc3N)c2I)cc1` [Compound 106] stands 180 to 182 °C; under `Cc1ncc(Cn2cc(COC(=O)c3ccccc3Br)nn2)c(N)n1` [Compound 40], 174 to 176 °C.
The compound `COc1ccc(OCC(=O)OCc2cn(Cc3cnc(C)nc3N)nn2)cc1` [Compound 58] came in with a melting point of 128 to 129 °C.
Under `Cc1ncc(Cn2cc(COC(=O)COc3ccc([N+](=O)[O-])cc3)nn2)c(N)n1` [Compound 66] stands 145 to 148 °C; under `Cc1ncc(Cn2cc(CNC(=O)c3ccc(F)cc3)nn2)c(N)n1` [Compound 44], 211 to 212 °C; under `Cc1ncc(Cn2nnc(COC(=O)c3ccccc3F)c2I)c(N)n1` [Compound 93], 187 to 188 °C.
Under `Cc1ncc(Cn2cc(COC(=O)COc3cccc(C)c3C)nn2)c(N)n1` [Compound 63] stands 168 to 171 °C.
Compound `Cc1ccc(OCC(=O)NCc2cn(Cc3cnc(C)nc3N)nn2)cc1` [Compound 70] yielded a melting point of 117 to 119 °C.
Consider `Cc1ncc(Cn2cc(CNC(=O)c3ccc([N+](=O)[O-])cc3)nn2)c(N)n1` [Compound 47], for which the melting point was in the range of 239 to 240 °C.
Under `Cc1ncc(Cn2cc(CNC(=O)c3ccc([N+](=O)[O-])cc3Cl)nn2)c(N)n1` [Compound 51] stands more than 260 °C.
On to `COc1ccc(OCC(=O)NCc2cn(Cc3cnc(C)nc3N)nn2)cc1` [Compound 75], for which the melting point is 165 to 166 °C.
Under `Cc1ncc(Cn2nnc(COC(=O)c3ccccc3Cl)c2I)c(N)n1` [Compound 89] stands 185 to 187 °C; under `Cc1ncc(Cn2nnc(CNC(=O)c3ccccc3)c2I)c(N)n1` [Compound 102], 218 to 220 °C.
Turning to `Cc1ncc(Cn2cc(COC(=O)COc3ccc(F)cc3Cl)nn2)c(N)n1` [Compound 60], the melting point lay within 144 to 146 °C.
The same measure for `Cc1ncc(Cn2nnc(COc3ccc([N+](=O)[O-])cc3Cl)c2I)c(N)n1` [Compound 30]: 223 to 225 °C.
The same measure for `Cc1ncc(Cn2cc(COC(=O)COc3ccc(Cl)cc3C)nn2)c(N)n1` [Compound 59]: 138 to 140 °C; for `Cc1ncc(Cn2cc(COC(=O)COc3cccc(C(F)(F)F)c3)nn2)c(N)n1` [Compound 62]: 138 to 140 °C; for `Cc1ncc(Cn2cc(COC(=O)COc3ccc([N+](=O)[O-])cc3Cl)nn2)c(N)n1` [Compound 67]: 145 to 148 °C.
Turning to `Cc1cccc(OCc2cn(Cc3cnc(C)nc3N)nn2)c1` [Compound 19], the melting point is 58 to 59 °C.
In turn, `Cc1ncc(Cn2cc(CNC(=O)c3ccc(Cl)cc3)nn2)c(N)n1` [Compound 48] yielded a melting point of 165 to 167 °C.
`Cc1ncc(Cn2cc(COc3ccc(F)cc3)nn2)c(N)n1` [Compound 20] returned a melting point of 178 to 179 °C.
Under `Cc1ncc(Cn2cc(COC(=O)c3cccc([N+](=O)[O-])c3)nn2)c(N)n1` [Compound 41] stands 159 to 160 °C.
In turn, `Cc1ncc(Cn2cc(CNC(=O)COc3ccc([N+](=O)[O-])cc3Cl)nn2)c(N)n1` [Compound 72] displayed a melting point of 183 to 184 °C.
Under `Cc1ncc(Cn2cc(CNC(=O)c3ccccc3Cl)nn2)c(N)n1` [Compound 49] stands 217 to 218 °C; under `Cc1ncc(Cn2nnc(COc3ccccc3Br)c2I)c(N)n1` [Compound 85], 145 to 147 °C.
`Cc1ncc(Cn2nnc(COC(=O)c3ccccc3Br)c2I)c(N)n1` [Compound 98]: the melting point lay within 200 to 202 °C.
Turning to `Cc1ccc(OCC(=O)OCc2cn(Cc3cnc(C)nc3N)nn2)cc1` [Compound 57], the melting point was 149 to 151 °C.
`Cc1ncc(Cn2nnc(COC(=O)c3ccc(F)cc3)c2I)c(N)n1` [Compound 94]: the melting point was 207 to 209 °C.
Under `CCOC(=O)c1ccc(OCc2nnn(Cc3cnc(C)nc3N)c2I)cc1` [Compound 87] stands 146 to 147 °C.
`Cc1ncc(Cn2cc(CNC(=O)COc3ccc([N+](=O)[O-])cc3)nn2)c(N)n1` [Compound 73] gave a melting point of 143 to 144 °C.
`Cc1ncc(Cn2cc(COc3ccc(C#N)cc3)nn2)c(N)n1` [Compound 22] gave a melting point of 185 to 186 °C.
Consider `Cc1ncc(Cn2cc(CNC(=O)c3ccccc3Br)nn2)c(N)n1` [Compound 52], for which the melting point fell in the range of 233 to 234 °C.
The same measure for `Cc1ccc(C(=O)NCc2cn(Cc3cnc(C)nc3N)nn2)cc1` [Compound 45]: 132 to 133 °C; for `Cc1ncc(Cn2nnc(COC(=O)c3cccc([N+](=O)[O-])c3)c2I)c(N)n1` [Compound 97]: 201 to 202 °C; for `Cc1ncc(Cn2cc(COc3ccc(Br)cc3)nn2)c(N)n1` [Compound 21]: 167 to 168 °C.
Under `Cc1ncc(Cn2cc(CNC(=O)c3cccc(Cl)c3)nn2)c(N)n1` [Compound 50] stands 213 to 214 °C; under `Cc1ncc(Cn2cc(CNC(=O)COc3ccccc3Cl)nn2)c(N)n1` [Compound 69], 201 to 202 °C.
As for `Cc1ncc(Cn2nnc(CNC(=O)c3ccccc3Br)c2I)c(N)n1` [Compound 109], the melting point was in the range of 200 to 202 °C.
The same measure for `Cc1ncc(Cn2cc(COC(=O)COc3ccc(Cl)cc3)nn2)c(N)n1` [Compound 56]: 152 to 153 °C; for `Cc1ncc(Cn2cc(CNC(=O)c3cccc([N+](=O)[O-])c3)nn2)c(N)n1` [Compound 53]: 188 to 189 °C.
The compound `Cc1ncc(Cn2cc(CNC(=O)COc3ccc(F)cc3Cl)nn2)c(N)n1` [Compound 79] displayed a melting point of 125 to 126 °C.
Under `Cc1ncc(Cn2nnc(CNC(=O)c3ccc([N+](=O)[O-])cc3Cl)c2I)c(N)n1` [Compound 107] stands 183 to 184 °C; under `Cc1ncc(Cn2cc(CNC(=O)COc3ccc(Cl)cc3)nn2)c(N)n1` [Compound 71], 124 to 125 °C.
Under `Cc1ncc(Cn2nnc(CNC(=O)c3ccccc3F)c2I)c(N)n1` [Compound 105] stands 204 to 206 °C; under `Cc1ncc(Cn2nnc(CNC(=O)c3ccc(F)cc3)c2I)c(N)n1` [Compound 104], 217 to 219 °C; under `Cc1ncc(Cn2cc(COC(=O)COc3cc(Cl)c(Cl)c(Cl)c3)nn2)c(N)n1` [Compound 64], 160 to 161 °C.
Under `Cc1ncc(Cn2cc(CNC(=O)COc3cccc(C)c3C)nn2)c(N)n1` [Compound 77] stands 169 to 170 °C; under `Cc1ncc(Cn2nnc(CNC(=O)c3ccc([N+](=O)[O-])cc3)c2I)c(N)n1` [Compound 101], 223 to 224 °C; under `Cc1ncc(Cn2nnc(COC(=O)c3ccc([N+](=O)[O-])cc3)c2I)c(N)n1` [Compound 95], 192 to 193 °C.
On to `Cc1ncc(Cn2cc(CNC(=O)COc3ccccc3)nn2)c(N)n1` [Compound 78], for which the melting point lay in the range of 168 to 169 °C.
Under `Cc1ncc(Cn2cc(COC(=O)COc3ccc(C(C)(C)C)cc3)nn2)c(N)n1` [Compound 61] stands 107 to 110 °C.
Under `Cc1ncc(Cn2cc(CNC(=O)c3ccccc3F)nn2)c(N)n1` [Compound 46] stands 205 to 206 °C.
Under `Cc1ccc(OCc2cn(Cc3cnc(C)nc3N)nn2)cc1` [Compound 17] stands 157 to 158 °C; under `Cc1ncc(Cn2nnc(CNC(=O)c3cccc([N+](=O)[O-])c3)c2I)c(N)n1` [Compound 108], 202 to 204 °C.
`Cc1ncc(Cn2nnc(COC(=O)c3cccc(Cl)c3)c2I)c(N)n1` [Compound 90] yielded a melting point of 185 to 187 °C.
Under `Cc1ncc(Cn2cc(CNC(=O)COc3ccc(Br)cc3)nn2)c(N)n1` [Compound 74] stands 105 to 106 °C; under `Cc1ncc(Cn2nnc(COC(=O)c3ccc([N+](=O)[O-])cc3Cl)c2I)c(N)n1` [Compound 96], 183 to 184 °C; under `Cc1ncc(Cn2nnc(COc3ccccc3[N+](=O)[O-])c2I)c(N)n1` [Compound 80], 178 to 180 °C.
The same measure for `Cc1ncc(Cn2nnc(COc3ccc(Cl)cc3Cl)c2I)c(N)n1` [Compound 83]: 176 to 177 °C; for `Cc1ncc(Cn2cc(COc3ccccc3C)nn2)c(N)n1` [Compound 18]: 153 to 154 °C; for `Cc1ccc(C(=O)OCc2nnn(Cc3cnc(C)nc3N)c2I)cc1` [Compound 92]: 200 to 201 °C.
For the compound `Cc1ncc(Cn2cc(COC(=O)COc3ccc(Cl)c(C)c3)nn2)c(N)n1` [Compound 55], the melting point lay in the range of 163 to 165 °C.
The same measure for `Cc1ncc(Cn2cc(COC(=O)c3ccc([N+](=O)[O-])cc3Cl)nn2)c(N)n1` [Compound 42]: 129 to 130 °C; for `Cc1ncc(Cn2nnc(COc3cccc(C(F)(F)F)c3)c2I)c(N)n1` [Compound 81]: 146 to 148 °C.
Under `Cc1ncc(Cn2nnc(CNC(=O)c3cccc(Cl)c3)c2I)c(N)n1` [Compound 99] stands 197 to 198 °C; under `Cc1ncc(Cn2cc(COC(=O)COc3ccccc3[N+](=O)[O-])nn2)c(N)n1` [Compound 65], 158 to 160 °C.

The melting point is the temperature, or range, at which the solid turns liquid.

For the origin of these results see US8865724B2, “Preparation of 2-methyl-4-amino-5(substituted-1H-1,2,3-triazolyl)methylpyrimidine derivatives and microbicidal activity thereof” (Central China Normal University, priority 2011, dated 2014).
